The values that follow come from US20260000698A1 (priority 2022, published 2026).

For one data set, the target named is T1, SUV39H1 (Homo sapiens, UniProt O43463).
T1 construct: purchased BPS Bioscience
T1 sequence (O43463 1-412): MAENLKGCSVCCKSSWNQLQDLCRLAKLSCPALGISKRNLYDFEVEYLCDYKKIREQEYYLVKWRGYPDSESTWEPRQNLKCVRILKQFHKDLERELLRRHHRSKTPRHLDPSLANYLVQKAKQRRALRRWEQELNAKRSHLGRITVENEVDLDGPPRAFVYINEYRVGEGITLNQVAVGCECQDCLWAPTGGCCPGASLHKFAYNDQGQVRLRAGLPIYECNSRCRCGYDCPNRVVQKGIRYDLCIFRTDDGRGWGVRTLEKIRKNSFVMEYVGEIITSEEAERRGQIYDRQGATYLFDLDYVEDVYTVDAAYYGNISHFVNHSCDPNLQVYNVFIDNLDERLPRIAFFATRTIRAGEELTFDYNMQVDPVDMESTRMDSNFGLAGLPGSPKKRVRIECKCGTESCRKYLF
In words: Human MTase screening: SUV39H1. In kind it is biochemical. The procedure: (§1) Assay conditions. The human methyltransferase inhibition assays were performed at BPS Bioscience (San Diego, CA, USA). All of the enzymatic reactions were conducted in duplicate at room temperature for 60-960 min in a 50 μL mixture containing proper methyltransferase assay buffer, S-adenosylmethionine (SAM), enzyme, and the test compound. These 50 μL reactions were carried out in wells of a substrate pre-coated plate. First, enzyme and inhibitor were added to assay wells and preincubated for 30 min at room temperature, then SAM was added to start the reaction. Final DMSO concentration was 1% in all reactions.
(§2) After enzymatic reactions, the reaction mixtures were discarded and each of the wells was washed three times with TBST buffer, and slowly shaken with Blocking Buffer for 10 min. Wells were emptied, and 100 μL of diluted primary antibody was added. The plate was then slowly shaken for 60 minutes at room temperature. […] Immediately, the luminescence of the samples was measured in a BioTek Synergy™ 2 (Winooski, VT, USA) microplate reader using Gen5 software.
(§3) Data analysis. […] The luminescence data/alpha counts were analyzed and compared. […] The percent activity in the presence of each compound was calculated according to the following equation: % activity=(C−C0)/(Ce−C0), where C=the luminescence/alpha counts in the presence of the compound.

Data set [1] is described as follows: Liver S9 stability assay, human liver S9. The following applies: n = 2, mean±SD.
Data set [2] is described as follows: Plasma stability assay, mouse plasma. In kind it is in vitro ADME, mouse (CD-1). The method, then: (§4) Plasma stability assay. The plasma stability assay was performed in triplicate by incubating each selected compound (1 μmol/L final concentration) in normal mouse (CD-1) or human plasma (Innovative Research; Novi, MI, USA) diluted to 80% with 0.1 mol/L potassium phosphate buffer (pH 7.4) at 37° C. At 0, 1, 3, 6, and 24 h, a 50 μL aliquot of the plasma mixture was taken and quenched with 150 μL of acetonitrile containing 0.1% formic acid. The samples were then vortexed and centrifuged at 15,000 rpm (Eppendorf centrifuge 5424R; Enfield, CT, USA) for 5 min. The supernatants were collected and analyzed by LC-MS/MS to determine the in vitro plasma half-life (t1/2).

The next data set has as its target T2, MLL1 Complex (Homo sapiens, UniProt Q03164).
T2 construct: purchased BPS Bioscience
Description: Human MTase screening: MLL1 Complex. In kind it is biochemical. The method, then:
as §1, §2, §3

The next data set relates to A549/ACE2/TMPRSS2 cells. In words: in vitro. Particulars: cell viability at 50 μM.
The target of the next data set is T3, DNMT3A/DNMT3L (Homo sapiens, UniProt Q9Y6K1).
T3 construct: purchased BPS Bioscience
Description: Human MTase screening: DNMT3A/DNMT3L. In kind it is biochemical. The method, then:
as §1, §2, §3

The nature of data set [3]: Plasma stability assay, human plasma. It is filed as in vitro ADME. The method, then:
as §4

In data set [4] the test system is SARS-CoV-2 isolate USA-WA1/2020. Particulars: inhibition at 50 μM.
In another data set the target is T4, EZH1 (Homo sapiens, UniProt Q92800).
T4 construct: purchased BPS Bioscience
In words: Human MTase screening: EZH1. It is filed as biochemical. The method, then:
as §1, §2, §3

The target of a further data set is SARS-CoV-2 Nsp14 MTase (Severe acute respiratory syndrome coronavirus 2, UniProt P0DTD1). Description: biochemical. It is filed as biochemical.
Data set [5] is described as follows: Liver S9 stability assay, mouse liver S9. The following applies: n = 2, mean±SD.
A further data set has as its target T5, DNMT1 (Homo sapiens, UniProt P26358).
T5 construct: purchased BPS Bioscience
Description: Human MTase screening: DNMT1. In kind it is biochemical. The method, then:
as §1, §2, §3

The next data set has as its target T6, PRMT1 (Homo sapiens, UniProt Q99873).
T6 construct: purchased BPS Bioscience
In words: Human MTase screening: PRMT1. It is filed as biochemical. The method, then:
as §1, §2, §3

Assay in data set [6]: not given
The source holds these as a separate data set.

Another data set deals with T7, PRMT3 (Homo sapiens, UniProt O60678).
T7 construct: purchased BPS Bioscience
Description: Human MTase screening: PRMT3. It is filed as biochemical. The method, then:
as §1, §2, §3

Marks after values point to notes of the source that are not given here. A value given as a limit tells only on which side of the number the result lay.

T6 sequence (Q99873 whole entry): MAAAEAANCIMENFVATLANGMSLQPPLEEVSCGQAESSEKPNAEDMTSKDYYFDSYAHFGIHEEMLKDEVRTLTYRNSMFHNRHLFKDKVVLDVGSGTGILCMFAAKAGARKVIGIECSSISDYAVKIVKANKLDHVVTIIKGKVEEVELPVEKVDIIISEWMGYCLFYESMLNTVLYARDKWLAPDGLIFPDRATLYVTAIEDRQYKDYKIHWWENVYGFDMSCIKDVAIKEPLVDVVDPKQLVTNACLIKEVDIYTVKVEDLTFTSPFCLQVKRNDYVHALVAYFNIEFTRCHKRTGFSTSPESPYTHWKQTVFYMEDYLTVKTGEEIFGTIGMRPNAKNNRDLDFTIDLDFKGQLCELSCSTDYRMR
T4 sequence (Q92800 whole entry): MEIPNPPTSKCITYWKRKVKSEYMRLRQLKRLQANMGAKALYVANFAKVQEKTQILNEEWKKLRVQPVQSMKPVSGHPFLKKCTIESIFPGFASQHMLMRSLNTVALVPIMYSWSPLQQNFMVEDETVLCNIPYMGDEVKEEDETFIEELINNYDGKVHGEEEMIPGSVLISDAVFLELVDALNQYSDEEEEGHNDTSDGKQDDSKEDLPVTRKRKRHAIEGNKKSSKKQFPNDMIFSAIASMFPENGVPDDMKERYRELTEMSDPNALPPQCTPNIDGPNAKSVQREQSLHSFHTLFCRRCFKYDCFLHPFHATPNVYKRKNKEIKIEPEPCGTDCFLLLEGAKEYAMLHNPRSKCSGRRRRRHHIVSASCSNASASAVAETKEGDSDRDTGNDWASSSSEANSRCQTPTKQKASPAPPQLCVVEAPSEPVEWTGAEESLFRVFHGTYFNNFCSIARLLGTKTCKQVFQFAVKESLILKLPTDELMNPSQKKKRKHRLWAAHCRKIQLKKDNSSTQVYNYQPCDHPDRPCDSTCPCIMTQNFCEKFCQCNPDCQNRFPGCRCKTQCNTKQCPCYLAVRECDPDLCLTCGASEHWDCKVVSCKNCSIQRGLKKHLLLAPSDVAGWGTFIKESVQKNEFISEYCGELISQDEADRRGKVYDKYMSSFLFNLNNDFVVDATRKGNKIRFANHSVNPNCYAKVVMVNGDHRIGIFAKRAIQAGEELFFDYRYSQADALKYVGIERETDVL
T4 sequence (O75530 whole entry partner): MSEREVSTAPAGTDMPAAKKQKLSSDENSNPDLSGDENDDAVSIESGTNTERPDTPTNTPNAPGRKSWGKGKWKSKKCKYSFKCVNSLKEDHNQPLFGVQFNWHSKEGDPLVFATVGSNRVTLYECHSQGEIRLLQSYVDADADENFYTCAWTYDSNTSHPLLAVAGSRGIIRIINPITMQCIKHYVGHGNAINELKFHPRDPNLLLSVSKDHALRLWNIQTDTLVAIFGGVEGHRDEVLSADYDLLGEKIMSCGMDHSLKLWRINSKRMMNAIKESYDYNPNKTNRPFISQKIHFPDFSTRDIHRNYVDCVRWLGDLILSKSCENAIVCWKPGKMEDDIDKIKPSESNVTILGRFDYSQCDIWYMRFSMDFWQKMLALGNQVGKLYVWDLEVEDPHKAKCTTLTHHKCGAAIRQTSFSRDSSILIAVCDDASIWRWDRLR
T4 sequence (Q15022 whole entry partner): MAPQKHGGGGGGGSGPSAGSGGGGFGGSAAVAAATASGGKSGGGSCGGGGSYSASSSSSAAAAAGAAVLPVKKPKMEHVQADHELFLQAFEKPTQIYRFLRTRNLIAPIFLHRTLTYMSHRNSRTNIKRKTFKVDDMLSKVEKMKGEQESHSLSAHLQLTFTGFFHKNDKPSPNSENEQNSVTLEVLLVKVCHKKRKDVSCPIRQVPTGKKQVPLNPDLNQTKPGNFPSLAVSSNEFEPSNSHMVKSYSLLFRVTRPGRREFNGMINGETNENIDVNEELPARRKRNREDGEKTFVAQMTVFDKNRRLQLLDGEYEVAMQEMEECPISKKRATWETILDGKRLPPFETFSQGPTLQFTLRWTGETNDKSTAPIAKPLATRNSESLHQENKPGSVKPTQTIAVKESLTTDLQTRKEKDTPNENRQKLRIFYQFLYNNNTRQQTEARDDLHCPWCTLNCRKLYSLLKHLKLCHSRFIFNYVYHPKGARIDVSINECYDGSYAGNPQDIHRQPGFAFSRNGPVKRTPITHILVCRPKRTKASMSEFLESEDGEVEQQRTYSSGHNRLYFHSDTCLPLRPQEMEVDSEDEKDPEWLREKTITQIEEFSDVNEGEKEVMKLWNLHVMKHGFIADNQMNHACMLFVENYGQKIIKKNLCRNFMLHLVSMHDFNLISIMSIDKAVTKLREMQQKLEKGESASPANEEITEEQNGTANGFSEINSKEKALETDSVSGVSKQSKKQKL
T4 sequence (Q09028 whole entry partner): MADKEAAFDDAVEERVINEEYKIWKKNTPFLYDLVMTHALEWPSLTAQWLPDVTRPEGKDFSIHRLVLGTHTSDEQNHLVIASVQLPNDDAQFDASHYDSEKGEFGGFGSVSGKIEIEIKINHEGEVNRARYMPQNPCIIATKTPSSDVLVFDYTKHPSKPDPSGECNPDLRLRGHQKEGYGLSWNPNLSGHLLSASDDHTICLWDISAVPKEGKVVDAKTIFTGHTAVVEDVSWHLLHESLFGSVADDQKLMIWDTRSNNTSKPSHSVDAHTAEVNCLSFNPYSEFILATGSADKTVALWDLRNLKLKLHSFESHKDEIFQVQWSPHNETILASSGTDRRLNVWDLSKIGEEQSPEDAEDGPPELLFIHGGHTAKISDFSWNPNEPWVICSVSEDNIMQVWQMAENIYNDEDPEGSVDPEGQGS
T4 sequence (Q6ZN18 whole entry partner): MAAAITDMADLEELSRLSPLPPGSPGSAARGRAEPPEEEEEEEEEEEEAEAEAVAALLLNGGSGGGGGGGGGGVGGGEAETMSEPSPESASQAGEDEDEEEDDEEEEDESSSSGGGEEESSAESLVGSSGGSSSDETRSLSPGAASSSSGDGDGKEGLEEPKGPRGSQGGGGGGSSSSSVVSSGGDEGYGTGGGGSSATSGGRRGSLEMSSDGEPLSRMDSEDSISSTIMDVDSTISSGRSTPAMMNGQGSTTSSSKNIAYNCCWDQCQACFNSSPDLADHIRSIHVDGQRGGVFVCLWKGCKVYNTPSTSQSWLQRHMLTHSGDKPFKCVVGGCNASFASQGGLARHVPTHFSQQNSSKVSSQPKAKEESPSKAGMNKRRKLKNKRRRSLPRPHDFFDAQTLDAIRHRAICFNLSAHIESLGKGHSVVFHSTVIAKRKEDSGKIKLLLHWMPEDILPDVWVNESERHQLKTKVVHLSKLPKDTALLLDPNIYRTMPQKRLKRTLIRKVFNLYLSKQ
T7 sequence (O60678 whole entry): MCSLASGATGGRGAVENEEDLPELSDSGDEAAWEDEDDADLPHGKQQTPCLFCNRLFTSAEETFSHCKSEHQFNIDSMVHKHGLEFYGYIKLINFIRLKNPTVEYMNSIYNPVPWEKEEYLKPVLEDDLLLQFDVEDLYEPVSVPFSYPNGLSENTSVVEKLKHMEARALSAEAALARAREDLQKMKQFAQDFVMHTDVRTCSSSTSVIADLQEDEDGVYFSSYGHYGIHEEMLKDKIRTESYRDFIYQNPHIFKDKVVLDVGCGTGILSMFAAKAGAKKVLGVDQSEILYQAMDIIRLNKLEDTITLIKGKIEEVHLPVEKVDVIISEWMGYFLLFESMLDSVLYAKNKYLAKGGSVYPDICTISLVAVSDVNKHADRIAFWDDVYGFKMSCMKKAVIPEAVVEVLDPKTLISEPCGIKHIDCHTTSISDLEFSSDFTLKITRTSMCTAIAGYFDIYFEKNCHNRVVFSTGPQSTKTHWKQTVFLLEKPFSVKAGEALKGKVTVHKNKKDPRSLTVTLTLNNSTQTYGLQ

`Nc1ncnc2c1ncn2[C@@H]1O[C@H](CNS(=O)(=O)c2ccc3ccccc3c2)[C@@H](O)[C@H]1O` [Compound 3, N-(((2R,3S,4R,5R)-5-(6-Amino-9H-purin-9-yl)-3,4-dihydroxytetrahydrofuran-2-yl)methyl)naphthalene-2-sulfonamide]: the “stability in human liver S9 fractions” value is “resistant to phase I and II transformations”. The inhibition at 10 µM on SUV39H1 was 11%. In addition, the “Human Liver S9 Stability t1/2, Phase I” value in data set [1] (cofactor NADPH) was determined as 11.2 ± 2.27 h. The “Human Liver S9 Stability t1/2, Phase II” value in [1] (cofactor UDPGA) was >45^e min. The “Plasma Stability t1/2, Mouse” value in data set [2] (mouse plasma, 37° C., n = 3) is on record as >24^d h. Also, the “stability in mouse plasma” value in [2] (mouse, plasma) is given as “remarkably stable”. Moreover, the inhibition at 10 µM at MLL1 Complex worked out at 1%. In addition, the “CC50: NT (nontoxic)” value in the data set with A549/ACE2/TMPRSS2 cells is “NT^b (NT, nontoxic, >95% cell viability at 50 μM;)”. Further, the inhibition at 10 µM on DNMT3A/DNMT3L was 4%. Further, the “Plasma Stability t1/2, Human” value in data set [3] (human plasma, 37° C., n = 3) is on record as >24^d h. Also, the “stability in human plasma” value in [3] (human, plasma) was “remarkably stable”. Moreover, in [4], the “EC50: NA (not active)” value is listed as “NA^a (NA, not active, <15% inhibition at 50 μM.)”. In addition, the inhibition at 10 µM on EZH1 amounted to 2%. Further, the IC50 on SARS-CoV-2 Nsp14 MTase (LC-MS/MS assay, read-out: IC50) worked out at 61 nM. At SARS-CoV-2 Nsp14 MTase (MTase IC50 vs compound 1), the “fold more active than compound 1” value was greater than 150 fold. For the same compound, the “Mouse Liver S9 Stability t1/2, Phase I” value in [5] (cofactor NADPH) is 4.55 ± 0.383 h. In addition, the “Mouse Liver S9 Stability t1/2, Phase II” value in data set [5] (cofactor UDPGA) is reported as >45^e min. Also, the inhibition at 10 µM on DNMT1 came to 5%. The inhibition at 10 µM at PRMT1 was 5%. Further, the “stability in mouse liver S9 fractions” value in [6] is “resistant to phase I and II transformations”. The inhibition at 10 µM on PRMT3 was determined as 0%.

In general, inhibition refers to the change of the read-out against control, counted positive when it falls. In general, IC50 refers to the concentration at which inhibition is half-maximal.
